# From US10927111B2, “Inhibitors of RAF kinases” (Kinnate Biopharma Inc., priority 2019, dated 2021)
# Target: human RAF1 (Homo sapiens (Human), UniProt P04049)
# Assay: Protein kinase assay (radiometric 33P-ATP, MEK1 (K97R) substrate)
# Format: biochemical
# Conditions: human MEK1 (K97R) substrate 3 micromolar, ATP 10 micromolar, 10-dose IC50 mode; read-out: RAF-1 IC50
# Sequence of human RAF1 (P04049 whole entry): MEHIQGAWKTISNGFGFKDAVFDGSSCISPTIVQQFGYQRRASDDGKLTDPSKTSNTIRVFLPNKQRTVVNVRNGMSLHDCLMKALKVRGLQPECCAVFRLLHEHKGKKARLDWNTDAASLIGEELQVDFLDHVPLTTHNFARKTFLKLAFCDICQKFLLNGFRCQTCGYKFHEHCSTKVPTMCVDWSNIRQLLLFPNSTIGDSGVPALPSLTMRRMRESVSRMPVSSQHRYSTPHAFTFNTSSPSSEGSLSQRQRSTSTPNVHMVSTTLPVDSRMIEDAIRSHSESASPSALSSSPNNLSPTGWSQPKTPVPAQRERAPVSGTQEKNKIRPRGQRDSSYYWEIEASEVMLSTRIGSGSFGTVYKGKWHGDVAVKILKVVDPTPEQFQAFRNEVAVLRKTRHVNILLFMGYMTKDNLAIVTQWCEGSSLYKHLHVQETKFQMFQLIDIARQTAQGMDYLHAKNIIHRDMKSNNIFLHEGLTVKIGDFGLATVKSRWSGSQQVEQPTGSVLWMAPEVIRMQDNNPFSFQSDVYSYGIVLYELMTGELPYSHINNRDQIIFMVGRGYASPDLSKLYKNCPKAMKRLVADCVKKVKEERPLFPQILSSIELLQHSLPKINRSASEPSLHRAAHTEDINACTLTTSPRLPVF
row,IC50,SMILES
1,≤ 10 nM,"CNc1ncc2cc(-c3cc(NC(=O)N4CC[C@@H](CC(F)(F)F)C4)ccc3C)c(C#N)nc2n1 [Example 77, (3S)—N-[3-[7-cyano-2-(methylamino)pyrido[2,3-d]pyrimidin-6-yl]-4-methylphenyl]-3-(2,2,2-trifluoroethyl)pyrrolidine-1-carboxamide]"
2,≤ 10 nM,"CNc1ncc2cc(-c3cc(NC(=O)N4CCO[C@H](C(F)(F)F)C4)c(F)cc3C)c(C)nc2n1 [Example 11, (2S)-N-[2-fluoro-4-methyl-5-[7-methyl-2-(methylamino)pyrido[2,3-d]pyrimidin-6-yl]phenyl]-2-(trifluoromethyl)morpholine-4-carboxamide]"
3,≤ 10 nM,"CNc1ncc2cc(-c3cc(NC(=O)c4ccnc(C(F)(F)F)c4)ccc3C)c(Cl)nc2n1 [Example 64, N-[3-[7-chloro-2-(methylamino)pyrido[2,3-d]pyrimidin-6-yl]-4-methylphenyl]-2-(trifluoromethyl) pyridine-4-carboxamide]"
4,≤ 10 nM,"CNc1ncc2cc(-c3cc(NC(=O)c4ccnc(C(F)(F)F)c4)c(F)cc3C)c(C)nc2n1 [Example 7, N-[2-fluoro-4-methyl-5-[7-methyl-2-(methylamino)pyrido[2,3-d]pyrimidin-6-yl]phenyl]-2-(trifluoromethyl) pyridine-4-carboxamide]"
